Assay results reported in publication PMC5499624 (Biomolecules & Therapeutics, 2017).
Structures can show the parent of a compound that is named as a salt. Where two headings read alike, the source gives them in different places.

Tests used:
TR-BBB cells [1] = assay: Uptake of radiolabelled substrates in siRNA-transfected TR-BBB cells; assay type: in vitro ADME, rat; details: 37°C, 5 min
[2] = test system: [^3H]imperatorin brain uptake; assay: Brain uptake index; assay type: in vivo, rat; details: 15 s after injection
[3] = test system: proton coupled antiporter; details: read-out: in vivo Km; mouse, in situ brain perfusion; ref André et al., 2009; cited from earlier work
hCMEC/D3 cells = details: ref Kitamura et al., 2014, Sadiq et al., 2011; cited from earlier work
[4] = assay type: in vivo, SD rats; details: for AUC: 60 min; for Uptake: 60 min after IV
rat brain = assay: [^3H]imperatorin brain uptake by internal carotid artery perfusion; assay type: in vivo, SD rats; details: ICAP
[5] = [^3H]imperatorin uptake by TR-BBB cells; assay type: in vitro ADME, rat; details: rat, pH 7.4
TR-BBB cells [6] = assay: [^3H]imperatorin uptake by TR-BBB cells; assay type: in vitro ADME, rat
P-glycoprotein (P-gp) = details: ref Lili et al. (2013), cited from earlier work
[7] = test system: [^3H]imperatorin brain uptake; assay type: in vivo, SD rats; details: compound 1 mM, ICAP 4 ml/min for 15 sec, pH 7.4
[8] = test system: [^3H]imperatorin uptake by TR-BBB cells; assay: Inhibition of [^3H]imperatorin uptake by TR-BBB cells by selected compounds; assay type: in vitro ADME, rat; details: compound 1 mM (L-Carnitine: concentration cell empty), 37°C, 5 min
[9] = test system: [^3H]imperatorin uptake by TR-BBB cells; assay type: in vitro ADME, rat; details: 37°C, 5 min
[10] = sucrose; ref Lee and Kang, 2016; cited from earlier work

CC(=O)O[C@H](CC(=O)[O-])C[N+](C)(C)C [ALC, acetyl-L-carnitine]
uptake after siRNA transfection (TR-BBB cells [1]; Octn2 siRNA): significantly inhibited

Clc1cccc(Cl)c1N=C1NCCN1 [Clonidine, clonidine hydrochloride]
BUI of [^3H]imperatorin in presence of inhibitor ([2]; inhibitor 10 mM): 33.9 ± 5.5 % | Km [3]: 600 µM

CN(C)CCOC(c1ccccc1)c1ccccc1 [Diphenhydramine, diphenhydramine]
Km (hCMEC/D3 cells): 59 µM

CC(C)=CCOc1c2occc2cc2ccc(=O)oc12 [Imperatorin]
Brain VD relative to [^14C]sucrose ([4]; IV injection, rat brain): about 6 fold | BBB PS product relative to sucrose ([4]; IV injection, sucrose value from Lee and Kang, 2016): 12 fold | BBB PS product relative to sucrose ([4]; IV injection, sucrose value from Wu and Pardridge, 1999): 20 fold | AUCss ([4]; SD rats, single IV, plasma): 38.2 ± 1.5 % ID min/mL | AUC ([4]; SD rats, single IV, plasma): 22.1 ± 0.8 % ID min/mL | AUC ([4]; SD rats, single IV, plasma, listed as [^3H]imperatorin): 22 ± 1 % ID min/mL | Uptake ([4]; brain, SD rats): 0.086 ± 0.008 %ID/g | Uptake ([4]; heart, SD rats): 1.62 ± 0.10 %ID/g | Uptake ([4]; kidney, SD rats): 3.70 ± 0.33 %ID/g | Uptake ([4]; liver, SD rats): 1.21 ± 0.08 %ID/g | Uptake ([4]; lung, SD rats): 1.68 ± 0.03 %ID/g | Brain transport compared with control (rat brain; carbonate-free HEPES): markedly decreased | Vmax of brain influx (rat brain; imperatorin 0–1 mM, pH 7.4): 0.50 µmol/min/g | Brain transport compared with control (rat brain; mannitol Na+-free buffer): significantly increased | Kd (unsaturated component, passive diffusion) (rat brain; nonlinear regression): 3.1e-17 µL/min/g | Km (rat brain; read-out: apparent Km of brain influx, imperatorin 0–1 mM, pH 7.4): 180 µM | BUI of [^3H]imperatorin in presence of inhibitor ([2]; inhibitor 1 mM): 24.9 ± 3.4 % | microsomal CLint at 5 min [5]: 17 µL/min/mg | maximum rate of uptake velocity (Vmax) (TR-BBB cells [6]; 5 min, pH 7.4): 2.22 nmol/mg protein/min | y-intersection of time course uptake (cell-to-medium ratio) (TR-BBB cells [6]; at 30 sec, Fig. 4): approximately 140 ul/mg protein | [^3H]Imperatorin uptake compared to control (TR-BBB cells [6]; extracellular pH 6.4): significantly reduced | [^3H]Imperatorin uptake compared to control (TR-BBB cells [6]; extracellular pH 8.4): markedly increased | [^3H]Imperatorin uptake compared to control (TR-BBB cells [6]; intracellular acidification by pretreatment with NH4Cl): increased | [^3H]Imperatorin uptake compared to control (TR-BBB cells [6]; pHi alkalized by 30 mM NH4Cl): reduced | Km (TR-BBB cells [6]; read-out: Michaelis-Menten constant (Km) of uptake, 5 min, unlabeled imperatorin 0.01∼1 mM, pH 7.4): 59 µM | uptake after siRNA transfection (TR-BBB cells [1]; rPmat, rOct 2, rOctn2 or rOctn1 siRNA): not significantly affected | IC50 (P-glycoprotein (P-gp); P-gp inhibition): > 90 µM | efflux ratio (P-glycoprotein (P-gp); larger than 3.0 = substrate of P-gp): 0.5

C[N+](C)(C)C[C@H](O)CC(=O)[O-] [L-Carnitine, L-carnitine]
Brain volume of distribution (VD, % of Control) of [^3H]imperatorin [7]: 79.2 ± 5.3 % of Control | Relative Uptake (% of Control) of [^3H]imperatorin [8]: 86.4 ± 5.6 % of Control

C[n+]1ccc(-c2ccccc2)cc1 [MPP+, 1-Methyl-4-phenylpyridinium ion]
Brain volume of distribution (VD, % of Control) of [^3H]imperatorin [7]: 56.3 ± 5.8 % of Control | Relative Uptake (% of Control) of [^3H]imperatorin [8]: 81.3 ± 3.9 % of Control | uptake after siRNA transfection (TR-BBB cells [1]; rPmat siRNA): significantly inhibited

CNC[C@H](O)[C@@H](O)[C@H](O)[C@H](O)CO [N-Methylglucamine (NMG), N-Methylglucamine]
Relative Uptake (% of Control) of [^3H]imperatorin ([9]; Na+ replacement by N-methylglucamine): 97.4 ± 6.6 % of Control

CN1CCC[C@H]1c1cccnc1 [Nicotine, nicotine]
BUI of [^3H]imperatorin in presence of inhibitor ([2]; inhibitor 10 mM): 27.6 ± 0.0 %

Nc1ccc(C(=O)NCC(=O)O)cc1 [PAH]
Brain volume of distribution (VD, % of Control) of [^3H]imperatorin [7]: 94.4 ± 7.1 % of Control | BUI of [^3H]imperatorin in presence of inhibitor ([2]; inhibitor 10 mM): 58.5 ± 6.3%

[Cl-].[K+] [Potassium ion (KCl)]
Relative Uptake (% of Control) of [^3H]imperatorin ([9]; sodium replaced by potassium ion (KCl)): 97.3 ± 2.3 % of Control

[N-]=[N+]=[N-].[Na+] [Sodium azide, sodium azide]
Relative Uptake (% of Control) of [^3H]imperatorin ([9]; sodium azide 0.1%, pretreatment, pH 7.4): 63.8 ± 2.7 % of Control

CC[N+](CC)(CC)CC [TEA]
Brain volume of distribution (VD, % of Control) of [^3H]imperatorin [7]: 103 ± 5 % of Control | BUI of [^3H]imperatorin in presence of inhibitor ([2]; inhibitor 10 mM): 48.6 ± 4.5% | Relative Uptake (% of Control) of [^3H]imperatorin [8]: 107 ± 10 % of Control

COc1cccc(C2(O)CCCCC2CN(C)C)c1 (stereo not shown) [Tramadol, tramadol hydrochloride]
Km (hCMEC/D3 cells): 49 µM

OC[C@H]1O[C@@](CO)(O[C@H]2O[C@H](CO)[C@@H](O)[C@H](O)[C@H]2O)[C@@H](O)[C@@H]1O [sucrose]
BBB PS product [10]: 0.32 ± 0.52 µL/min/g

carbonyl cyanide-p-trifluorome-thoxyphenylhydrazone [FCCP]
Relative Uptake (% of Control) of [^3H]imperatorin ([9]; 10 μM FCCP, pre-incubated 10 min, pH 7.4): 56.2 ± 6.3 % of Control
